Reference: patent US11555821B2, “CA IX-NIR dyes and their uses” (On Target Laboratories, Inc., priority 2016, dated 2023)

Key:
[1] = system: HT29 (a human colon cancer cell line) tumor xenograft; assay: Whole body fluorescence imaging of HT29 tumor xenograft bearing mouse (IVIS imager); format: in vivo; settings: 10 nmol
Experimental: HT29 (a human colon cancer cell line) tumor xenograft bearing mouse was injected with 10 nmol of 61 and imaged with IVIS imager (ex=745 nm, em=ICG, exposure time=1 s) at different time intervals.
(§1) HT29 (a human colon cancer cell line) and HCC827 (a human lung cancer cell line) tumor xenograft bearing mouse was injected with 10 nmol of 61 and imaged with IVIS imager (ex=745 nm, em=ICG, exposure time=1 s) at different time intervals.

[2] = system: HCC827 (a human lung cancer cell line) tumor xenograft; assay: Whole body fluorescence imaging of HCC827 tumor xenograft bearing mouse (IVIS imager); format: in vivo; settings: 10 nmol
Experimental: HCC827 (a human lung cancer cell line) tumor xenograft bearing mouse was injected with 10 nmol of 61 and imaged with IVIS imager (ex=745 nm, em=ICG, exposure time=1 s) at different time intervals.
as §1

[3] = system: SKRC52 human renal tumor xenograft; assay: Whole body fluorescence imaging of SKRC52 human renal tumor xenograft bearing mouse (IVIS imager); format: in vivo; settings: 10 nmol, within 2-24 hours after administering to the animal
Experimental: SKRC52 human renal tumor xenograft bearing mouse was injected with 10 nmol of 54 and imaged with IVIS imager (ex=745 nm, em=ICG, exposure time=1 s) at different time intervals.
SKRC52 human renal tumor xenograft bearing mouse was injected with 10 nmol of 55 and imaged with IVIS imager (ex=745 nm, em=ICG, exposure time=1 s) at different time intervals.
SKRC52 human renal tumor xenograft bearing mouse was injected with 10 nmol of 60 and imaged with IVIS imager (ex=745 nm, em=ICG, exposure time=[…]) at different time intervals.
SKRC52 human renal tumor xenograft bearing mouse was injected with 10 nmol of 61 and imaged with IVIS imager (ex=745 nm, em=ICG, exposure time=[…]) at different time intervals.
SKRC52 human renal tumor xenograft bearing mouse was injected with 10 nmol of 62 and imaged with IVIS imager (ex=745 nm, em=ICG, exposure time=1 s) at different time intervals.
SKRC52 human renal tumor xenograft bearing mouse was injected with 10 nmol of 65 and imaged with IVIS imager (ex=745 nm, em=ICG, exposure time=1 s) at different time intervals.
SKRC52 human renal tumor xenograft bearing mouse was injected with 10 nmol of 69 and imaged with IVIS imager (ex=745 nm, em=ICG, exposure time=1 s) at different time intervals.
SKRC52 human renal tumor xenograft bearing mouse was injected with 10 nmol of 70 and imaged with IVIS imager (ex=745 nm, em=ICG, exposure time=1 s) at different time intervals.
SKRC52 human renal tumor xenograft bearing mouse was injected with 10 nmol 72 and imaged with IVIS imager (ex=745 nm, em=ICG, exposure time=1 s) at different time intervals
SKRC52 human renal tumor xenograft bearing mouse was injected with 10 nmol of 76 and imaged with IVIS imager (ex=745 nm, em=ICG, exposure time=1 s) at different time intervals
SKRC52 human renal tumor xenograft bearing mouse was injected with 10 nmol of 77 and imaged with IVIS imager (ex=745 nm, em=ICG, exposure time=1 s) at different time intervals
SKRC52 human renal tumor xenograft bearing mouse was injected with 10 nmol of 80 and imaged with IVIS imager (ex=745 nm, em=ICG, exposure time=1 s) at different time intervals
SKRC52 human renal tumor xenograft bearing mouse was injected with 10 nmol of 81 and imaged with IVIS imager (ex=745 nm, em=ICG, exposure time=1 s) at different time intervals
SKRC52 human renal tumor xenograft bearing mouse was injected with 10 nmol of 85 and imaged with IVIS imager (ex=745 nm, em=ICG, exposure time=1 s) at different time intervals
SKRC52 human renal tumor xenograft bearing mouse was injected with 10 nmol of 86 and imaged with IVIS imager (ex=745 nm, em=ICG, exposure time=1 s) at different time intervals
SKRC52 human renal tumor xenograft bearing mouse was injected with 10 nmol of 87 and imaged with IVIS imager (ex=745 nm, em=ICG, exposure time=1 s) at different time intervals
SKRC52 human renal tumor xenograft bearing mouse was injected with 10 nmol of 88 and imaged with IVIS imager (ex=745 nm, em=ICG, exposure time=1 s) at different time intervals
SKRC52 human renal tumor xenograft bearing mouse was injected with 10 nmol of 89 and imaged with IVIS imager (ex=745 nm, em=ICG, exposure time=1 s) at different time intervals
SKRC52 human renal tumor xenograft bearing mouse was injected with 10 nmol of 90 and imaged with IVIS imager (ex=745 nm, em=ICG, exposure time=1 s) at different time intervals
SKRC52 human renal tumor xenograft bearing mouse was injected with 10 nmol of 93 and imaged with IVIS imager (ex=745 nm, em=ICG, exposure time=1 s) at different time intervals
SKRC52 human renal tumor xenograft bearing mouse was injected with 10 nmol of 95 and imaged with IVIS imager (ex=745 nm, em=ICG, exposure time=1 s) at different time intervals
SKRC52 human renal tumor xenograft bearing mouse was injected with 10 nmol of 99 and imaged with IVIS imager (ex=745 nm, em=ICG, exposure time=1 s) at different time intervals […]

[4] = system: SKRC52 xenografts; assay: Fluorescence imaging of tumor accumulation of OTL410 in nude mice bearing SKRC52 xenografts (AMI imager); format: in vivo, mouse
Experimental: FIG. 49 illustrates the time course of tumor accumulation by OTL410 by fluorescence imaging of nude mice bearing SKRC52 xenografts. After intravenous administration of 1 nmol of the conjugate in 100 μl of 5% aqueous dextrose, mice were anesthetized by isoflurane right before collecting each image. Tumor accumulation is evident as early as 15 min after injection of the conjugate, reaching peak intensity by 4 h.
Mice were euthanized by CO2 inhalation 3 h after intravenous administration of indicated concentrations of the conjugate, and epifluorescence images were collected ex vivo (Ex=745 nm, Em=810 nm FOV=25, binning 2, lamp power=55%). Five mice/per group were used for doses 0.25 nmol to 20 nmol, and image of 1 mouse representing each dose is presented.
Tumor Implantation and imaging: For establishing subcutaneous tumors from SKRC52, HT29 and 22RV1 cells, female nude mice were inoculated subcutaneously with 5×10^6 cells in 150 μl of 50% matrigel on the flank. KB tumors were established by inoculating female nude mice subcutaneously with 1×10^6 KB cells in 100 μl of folate deficient RPMI 1640 media. MDA MB-231 tumors were established by inoculating female nude mice subcutaneously with 2×10^6 cells in 100 μl of RPMI 1640 media. Tumor sizes were measured using a digital calipers and tumor volumes were calculated using the formula (L/2)×W2 where L and W represent the length and width of the tumor. When the tumors reached desired size (500-700 mm3), mice were randomly assigned to groups of 4-5. Each mouse was injected with varying concentrations of OTL410 in 100 μl of 5% aqueous dextrose. For the time course study, mice were imaged under anesthesia at varying time points starting at 15 minutes and up to 24 h using a Spectral AMI imaging system (Spectral Instruments Imaging) using the imaging parameters t=1 sec, f stop=2, FOV=25, binning=2, and lamp power=55%. For the biodistribution studies, mice were euthanized at 3 h, 12 h or 24 h after injection of OTL410, and fluorescence images were collected ex vivo using the same instrument and imaging parameters described above. For quantification of tumor to background ratios, region of interest (ROI) was drawn for tumor and each tissue of interest and the total and mean fluorescence intensity were calculated using the proprietary software from Spectral Instruments. TBR for each organ and respective standard deviations were calculated using Excel software.

[5] = system: HT29, a colorectal cancer cell line; assay: OTL410 accumulation in HT29 tumor xenografts (AMI imager); format: in vivo; settings: HT29, 2 nmol/mouse, 4 h
Experimental: (§2) FIGS. 54A and 54B illustrate KB, a derivative of HeLa cervical cancer cell line. FIGS. 54C and 54D illustrate MDA-MB-231, a triple negative breast cancer cell line. FIGS. 54E and 54F illustrate FaDu, a head & neck cancer cell line; and FIGS. 54G and 54H illustrate HT29, a colorectal cancer cell line. OTL410 was administered at a dose of 2 nmol/mouse in 100 μl of 5% aqueous dextrose, and the images were collected 4 h later using an AMI imager with the mice under anesthesia.
(§3) Tumor Implantation and imaging: For establishing subcutaneous tumors from SKRC52, HT29 and 22RV1 cells, female nude mice were inoculated subcutaneously with 5×10^6 cells in 150 μl of 50% matrigel on the flank. […] Tumor sizes were measured using a digital calipers and tumor volumes were calculated using the formula (L/2)×W2 where L and W represent the length and width of the tumor. […] For the biodistribution studies, mice were euthanized at 3 h, 12 h or 24 h after injection of OTL410, and fluorescence images were collected ex vivo using the same instrument and imaging parameters described above. For quantification of tumor to background ratios, region of interest (ROI) was drawn for tumor and each tissue of interest and the total and mean fluorescence intensity were calculated using the proprietary software from Spectral Instruments. TBR for each organ and respective standard deviations were calculated using Excel software.

[6] = system: FaDu, a head & neck cancer cell line; assay: OTL410 accumulation in FaDu tumor xenografts (AMI imager); format: in vivo; settings: 2 nmol/mouse, 4 h
Experimental: as §2

[7] = system: MDA-MB-231, a triple negative breast cancer cell line; assay: OTL410 accumulation in MDA-MB-231 tumor xenografts (AMI imager); format: in vivo; settings: MDA-MB-231, 2 nmol/mouse, 4 h
Experimental: as §2, §3

[8] = system: SKRC52 cells; assay: Uptake of OTL410 by SKRC cells in vitro by fluorescence microscopy; format: cell-based, human; settings: 100 nmols, 2 h
Experimental: SKRC52 cells were incubated with 100 nmols of OTL410 for 2 h, and fluorescence images were acquired after removing unbound conjugate, and washing cells 2× with media.
For competition studies, 50,000 SKRC cells were grown on 8 well glass bottom slides for 48 h. Spent media was removed, and the cells were incubated with 100 nmols of OTL410 in 500 μl of fresh media alone or in presence of 200× non-fluorescent ligand (i.e. OTL410 without the dye) in a cell culture incubator for 2 h. Cells were then washed 2× with 500 μl of media, and after the second step of washing, 500 μl of serum free media was added to the cells. These cells were then imaged using a Nikon wide-field microscope.

[9] = system: CAIX expressing SKRC52 tumor; assay: OTL410 fluorescence-guided resection of CAIX expressing SKRC52 tumor from nude mice; format: in vivo; settings: 1 nmol/mouse, euthanized 24 h later
Experimental: OTL410 was administered at a dose of 1 nmol/mouse in 100 μl of 5% aqueous dextrose, and the mouse was euthanized 24 h later. FIG. 53A illustrates the image acquired after ex vivo whole-body fluorescence imaging and skin around the tumor was removed. FIG. 53B illustrates, guided by the fluorescence image, the image acquired after the tumor was resected.
as §3

[10] = system: KB, a derivative of HeLa cervical cancer cell line; assay: OTL410 accumulation in KB tumor xenografts (AMI imager); format: in vivo; settings: 2 nmol/mouse, 4 h
Experimental: as §2, §3

[11] = 1 nmol intravenous in 5% aqueous dextrose

| time after injection at which tumor accumulation is evident [4, 11] [min] | time of peak tumor fluorescence intensity [4, 11] [h] | tumor fluorescence intensity at 8 h ([4]; 1 nmol intravenous, 8 h) | tumor fluorescence intensity maintained after 24 h ([4]; 1 nmol intravenous, 24 h) | SMILES | accumulation in CA IX-negative tumor xenografts of colon cancer versus other healthy tissues [1] | accumulation in CA IX-negative tumor xenografts of lung cancer versus other healthy tissues [2] | whole-body imaging data [3] | dose dependence of accumulation in SKRC52 tumor xenografts ([4]; 0.25 nmol to 20 nmol intravenous, 3 h, ex vivo images) | accumulation in tumor xenografts [5] | accumulation in tumor xenografts [6] | accumulation in tumor xenografts [7] | uptake by SKRC cells in vitro [8] | fluorescence-guided tumor resection [9] | accumulation in tumor xenografts [10] |
| --- | --- | --- | --- | --- | --- | --- | --- | --- | --- | --- | --- | --- | --- | --- |
| – | – | – | – | CC1(C)C(/C=C/C2=C(Oc3ccc(C[C@H](NC(=O)CCOCCOCCNC(=O)CCS(=O)(=O)c4c(F)c(F)c(S(N)(=O)=O)c(F)c4NC4CCCCCCC4)C(=O)O)cc3)C(=C/C=C3/N(CCCCS(=O)(=O)O)c4ccc(S(=O)(=O)O)cc4C3(C)C)/CCC2)=[N+](CCCCS(=O)(=O)[O-])c2ccc(S(=O)(=O)O)cc21 [Compound 61, 4-(2-((E)-2-((E)-2-(4-((S)-2-carboxy-16-((2-(cyclooctylamino)-3,5,6-trifluoro-4-sulfamoylphenyl)sulfonyl)-4,14-dioxo-7,10-dioxa-3,13-diazahexadecyl)phenoxy)-3-(2-((E)-3,3-dimethyl-5-sulfo-1-(4-sulfobutyl)indolin-2-ylidene)ethylidene)cyclohex-1-en-1-yl)vinyl)-3,3-dimethyl-5-sulfo-3H-indol-1-ium-1-yl)butane-1-sulfonate] | selectively accumulated | selectively accumulated | very good | – | – | – | – | – | – | – |
| ≤ 15 | ≤ 4 | No loss in fluorescence intensity | ~80 % of peak intensity | CC1(C)C(/C=C/C2=C(Oc3ccc(C[C@H](NC(=O)CCOCCOCCNC(=O)CCCS(=O)(=O)c4c(F)c(F)c(S(N)(=O)=O)c(F)c4NC4CCCCCCC4)C(=O)O)cc3)C(=C/C=C3/N(CCCCS(=O)(=O)O)c4ccc(S(=O)(=O)O)cc4C3(C)C)/CCC2)=[N+](CCCCS(=O)(=O)[O-])c2ccc(S(=O)(=O)O)cc21 [OTL410] | – | – | – | dose dependent accumulation | tumor-specific accumulation | tumor-specific accumulation | tumor-specific accumulation | uptake | complete removal of the tumor with no fluorescent cells left behind | tumor-specific accumulation |
